Measured values taken from patent US12403137B2, “Compounds and methods of use” (Tango Therapeutics, Inc., priority 2019, dated 2025).
pIC50: −log10 of the molar value.

Assays:
PRMT5 [1] = biological target: T1, PRMT5 (Homo sapiens, UniProt O14744); experiment: PRMT5 inhibition assay with SAM as cofactor; type: biochemical; details: against PRMT5 in the presence of SAM as cofactor
T1 construct: purchased Viva (custom protein)
From the text: (§1) The Ki values can be calculated from the IC50 values as described in the Examples section. As detailed in the Examples section, for the assay performed in the presence of SAM, IC50=Ki×1.5 (Ki=IC50/1.5). For the assay performed in the presence of MTA, IC50=Ki×13.5 (Ki=IC50/13.5). Column 6 indicates the ratio between the Ki of compounds in the presence of SAM and the Ki of compounds in the presence of MTA

PRMT5 [2] = biological target: T1, PRMT5; experiment: PRMT5 inhibition assay with no cofactor; type: biochemical; details: against PRMT5 with no cofactor; read-out: No Co-factor IC50
PRMT5 [3] = biological target: T1, PRMT5; experiment: PRMT5 inhibition assay with MTA as cofactor; type: biochemical; details: for pIC50: against PRMT5 with MTA as cofactor; for SAM/MTA Ratio: ratio of Ki in the presence of SAM to Ki in the presence of MTA, Ki=IC50/1.5 (SAM), Ki=IC50/13.5 (MTA)
From the text: as §1

[4] = tested on: HAP1 MTAP-deleted cell line; experiment: SDMA in-cell western assay, HAP1 MTAP-deleted; type: cell-based; details: for pIC50: Homo sapiens, HAP1 MTAP-deleted (MTAP-null) cell line; for MTAP Intact/Deleted Ratio: IC50 ratio HAP1 MTAP-intact / HAP1 MTAP-deleted, >=3 fold considered MTAP-selective
How it was run: (§2)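 IC50 values come from an SDMA in-cell western run in isogenic HAP1 cells, either MTAP-null or expressing endogenous MTAP. The intact-to-deleted IC50 ratio is used to score MTAP selectivity.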

[5] = tested on: HAP1 MTAP-intact cell line; experiment: SDMA in-cell western assay, HAP1 MTAP-intact; type: cell-based; details: Homo sapiens
How it was run: as §2

T1 sequence (O14744 whole entry): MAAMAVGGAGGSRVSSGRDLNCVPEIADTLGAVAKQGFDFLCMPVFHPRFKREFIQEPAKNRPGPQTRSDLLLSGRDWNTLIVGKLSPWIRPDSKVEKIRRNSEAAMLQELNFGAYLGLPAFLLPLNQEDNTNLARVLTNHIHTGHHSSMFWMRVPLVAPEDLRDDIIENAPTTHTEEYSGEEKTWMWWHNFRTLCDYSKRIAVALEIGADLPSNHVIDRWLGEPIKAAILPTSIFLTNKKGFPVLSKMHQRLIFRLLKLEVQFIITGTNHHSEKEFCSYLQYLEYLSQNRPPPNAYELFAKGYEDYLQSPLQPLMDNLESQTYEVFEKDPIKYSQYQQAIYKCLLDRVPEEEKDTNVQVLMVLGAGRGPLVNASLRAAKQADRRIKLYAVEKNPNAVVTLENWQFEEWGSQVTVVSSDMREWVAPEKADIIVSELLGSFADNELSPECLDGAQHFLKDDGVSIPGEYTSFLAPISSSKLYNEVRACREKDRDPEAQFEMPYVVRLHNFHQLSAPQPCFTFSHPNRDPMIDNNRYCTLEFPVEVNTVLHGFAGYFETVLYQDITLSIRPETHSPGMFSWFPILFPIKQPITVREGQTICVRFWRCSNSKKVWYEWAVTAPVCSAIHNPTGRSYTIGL
T1 sequence (Q9BQA1 whole entry partner): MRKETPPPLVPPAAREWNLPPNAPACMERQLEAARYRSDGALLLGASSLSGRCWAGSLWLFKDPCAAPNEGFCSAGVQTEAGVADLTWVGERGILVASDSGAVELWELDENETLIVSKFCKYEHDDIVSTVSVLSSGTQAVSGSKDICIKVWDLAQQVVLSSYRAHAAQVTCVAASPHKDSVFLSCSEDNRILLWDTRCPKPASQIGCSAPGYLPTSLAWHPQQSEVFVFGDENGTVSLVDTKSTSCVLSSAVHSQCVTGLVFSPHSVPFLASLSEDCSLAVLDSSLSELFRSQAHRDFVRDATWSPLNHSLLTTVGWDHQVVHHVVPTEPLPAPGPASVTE

Structure (SMILES) | pIC50 (PRMT5 [1]) | pIC50 (PRMT5 [2]) | pIC50 (PRMT5 [3]) | pIC50 [4] | pIC50 [5] | SAM/MTA Ratio (PRMT5 [3]) | MTAP Intact/Deleted Ratio [4]
Cc1ncoc1COc1ccc2c(c1)CN[C@H]([C@H](O)CNC(=O)c1cc(NC3CCC3)nc(N3CCCCC3)n1)C2 [Compound 49, 6-(cyclobutylamino)-N-[(2R)-2-hydroxy-2-[(3S)-7-[(4-methyloxazol-5-yl)methoxy]-1,2,3,4-tetrahydroisoquinolin-3-yl]ethyl]-2-(1-piperidyl)pyrimidine-4-carboxamide] | 6.30 to 7.30 | 6.30 to 7.30 | > 7.30 | > 6.00 | 5.00 to 6.00 | A (a Ki ratio greater than or equal to 10 fold between the Ki in the presence of SAM and the Ki in the presence of MTA) | A* (an IC50 ratio greater than or equal to 10 fold between the IC50 in the HAP1 MTAP-intact cell line and the HAP1 MTAP-deleted cell line)
O=C(NC[C@@H](O)[C@@H]1Cc2ccc(OCc3cnco3)cc2CN1)c1ccc(C(=O)N2CCOCC2)cc1 [Compound 1, N—((R)-2-hydroxy-2-((S)-7-(oxazol-5-ylmethoxy)-1,2,3,4-tetrahydroisoquinolin-3-yl)ethyl)-4-(morpholine-4-carbonyl)benzamide] | 6.30 to 7.30 | ≤ 5.30 | 6.30 to 7.30 | ≤ 5.00 | ≤ 5.00 | A (a Ki ratio greater than or equal to 10 fold between the Ki in the presence of SAM and the Ki in the presence of MTA) | C* (an IC50 ratio of less than 3 fold between the IC50 in the HAP1 MTAP-intact cell line and the HAP1 MTAP-deleted cell line)
COc1cnc(NC2CCC2)cc1C(=O)NC[C@@H](O)[C@@H]1Cc2ccc(OCc3ocnc3C)cc2CN1 [Compound 36, 2-(cyclobutylamino)-N—((R)-2-hydroxy-2-((S)-7-((4-methyloxazol-5-yl)methoxy)-1,2,3,4-tetrahydroisoquinolin-3-yl)ethyl)-5-methoxyisonicotinamide] | 6.30 to 7.30 | 5.30 to 6.30 | > 7.30 | > 6.00 | 5.00 to 6.00 | A (a Ki ratio greater than or equal to 10 fold between the Ki in the presence of SAM and the Ki in the presence of MTA) | B* (an IC50 ratio greater than or equal to 3 fold but lower than 10 fold between the IC50 in the HAP1 MTAP-intact cell line and the HAP1 MTAP-deleted cell line)
CCOc1nc(N2CCN(C(=O)OC)CC2)ccc1C(=O)NC[C@@H](O)[C@@H]1Cc2ccc(OCc3ocnc3C)cc2CN1 [Compound 17, methyl 4-(6-ethoxy-5-(((R)-2-hydroxy-2-((S)-7-((4-methyloxazol-5-yl)methoxy)-1,2,3,4-tetrahydroisoquinolin-3-yl)ethyl)carbamoyl)pyridin-2-yl)piperazine-1-carboxylate] | 6.30 to 7.30 | 6.30 to 7.30 | > 7.30 | > 6.00 | 5.00 to 6.00 | A (a Ki ratio greater than or equal to 10 fold between the Ki in the presence of SAM and the Ki in the presence of MTA) | A* (an IC50 ratio greater than or equal to 10 fold between the IC50 in the HAP1 MTAP-intact cell line and the HAP1 MTAP-deleted cell line)
CCOc1nc(N2CCN(C(=O)OC)CC2)ccc1C(=O)NC[C@@H](O)[C@@H]1Cc2ccc(OCc3cnco3)cc2CN1 [Compound 16, methyl 4-(6-ethoxy-5-(((R)-2-hydroxy-2-((S)-7-(oxazol-5-ylmethoxy)-1,2,3,4-tetrahydroisoquinolin-3-yl)ethyl)carbamoyl)pyridin-2-yl)piperazine-1-carboxylate] | 6.30 to 7.30 | 6.30 to 7.30 | > 7.30 | > 6.00 | 5.00 to 6.00 | A (a Ki ratio greater than or equal to 10 fold between the Ki in the presence of SAM and the Ki in the presence of MTA) | B* (an IC50 ratio greater than or equal to 3 fold but lower than 10 fold between the IC50 in the HAP1 MTAP-intact cell line and the HAP1 MTAP-deleted cell line)
Cc1ncoc1COc1ccc2c(c1)CN[C@H]([C@H](O)CNC(=O)c1cccc(NC3CCC3)c1)C2 [Compound 28, 3-(cyclobutylamino)-N—((R)-2-hydroxy-2-((S)-7-((4-methyloxazol-5-yl)methoxy)-1,2,3,4-tetrahydroisoquinolin-3-yl)ethyl)benzamide] | 6.30 to 7.30 | 6.30 to 7.30 | > 7.30 | > 6.00 | 5.00 to 6.00 | A (a Ki ratio greater than or equal to 10 fold between the Ki in the presence of SAM and the Ki in the presence of MTA) | A* (an IC50 ratio greater than or equal to 10 fold between the IC50 in the HAP1 MTAP-intact cell line and the HAP1 MTAP-deleted cell line)
CCOc1cc(C(=O)N2[C@@H]3CCC[C@H]2COC3)ccc1C(=O)NC[C@@H](O)[C@@H]1Cc2ccc(OCc3cnco3)cc2CN1 [Compound 13, 4-((1R,5S)-3-oxa-9-azabicyclo[3.3.1]nonane-9-carbonyl)-2-ethoxy-N—((R)-2-hydroxy-2-((S)-7-(oxazol-5-ylmethoxy)-1,2,3,4-tetrahydroisoquinolin-3-yl)ethyl)benzamide] | 6.30 to 7.30 | 5.30 to 6.30 | 6.30 to 7.30 | > 6.00 | 5.00 to 6.00 | A (a Ki ratio greater than or equal to 10 fold between the Ki in the presence of SAM and the Ki in the presence of MTA) | A* (an IC50 ratio greater than or equal to 10 fold between the IC50 in the HAP1 MTAP-intact cell line and the HAP1 MTAP-deleted cell line)

More lines, main results first:

pIC50 (PRMT5 [1]) | pIC50 (PRMT5 [2]) | pIC50 (PRMT5 [3]) | pIC50 [4] | pIC50 [5] | Structure (SMILES) | SAM/MTA Ratio (PRMT5 [3]) | MTAP Intact/Deleted Ratio [4]
6.30 to 7.30 | 6.30 to 7.30 | 6.30 to 7.30 | ≤ 5.00 | ≤ 5.00 | CC(=O)N1CC(Nc2cc(C(=O)NC[C@@H](O)[C@@H]3Cc4ccc(OCc5ocnc5C)cc4CN3)cc(N3CCCCC3)c2)C1 [Compound 59, 3-[(1-acetylazetidin-3-yl)amino]-N-[(2R)-2-hydroxy-2-[(3S)-7-[(4-methyloxazol-5-yl)methoxy]-1,2,3,4-tetrahydroisoquinolin-3-yl]ethyl]-5-(1-piperidyl)benzamide] | A (a Ki ratio greater than or equal to 10 fold between the Ki in the presence of SAM and the Ki in the presence of MTA) | C* (an IC50 ratio of less than 3 fold between the IC50 in the HAP1 MTAP-intact cell line and the HAP1 MTAP-deleted cell line)
6.30 to 7.30 | 6.30 to 7.30 | 6.30 to 7.30 | > 6.00 | > 6.00 | Cc1ncoc1COc1ccc2c(c1)CN[C@H]([C@H](O)CNC(=O)c1cc(NC3CCC3)nc(N3CCCCC3)c1)C2 [Compound 31, 2-(cyclobutylamino)-N—((R)-2-hydroxy-2-((S)-7-((4-methyloxazol-5-yl)methoxy)-1,2,3,4-tetrahydroisoquinolin-3-yl)ethyl)-6-(piperidin-1-yl)isonicotinamide] | A (a Ki ratio greater than or equal to 10 fold between the Ki in the presence of SAM and the Ki in the presence of MTA) | C* (an IC50 ratio of less than 3 fold between the IC50 in the HAP1 MTAP-intact cell line and the HAP1 MTAP-deleted cell line)
6.30 to 7.30 | ≤ 5.30 | 6.30 to 7.30 | 5.00 to 6.00 | ≤ 5.00 | Cc1ncoc1COc1ccc2c(c1)CN[C@H]([C@H](O)CNC(=O)c1cccc(-c3ccccn3)c1)C2 [Compound 25, N—((R)-2-hydroxy-2-((S)-7-((4-methyloxazol-5-yl)methoxy)-1,2,3,4-tetrahydroisoquinolin-3-yl)ethyl)-3-(pyridin-2-yl)benzamide] | A (a Ki ratio greater than or equal to 10 fold between the Ki in the presence of SAM and the Ki in the presence of MTA) | C* (an IC50 ratio of less than 3 fold between the IC50 in the HAP1 MTAP-intact cell line and the HAP1 MTAP-deleted cell line)
6.30 to 7.30 | 5.30 to 6.30 | > 7.30 | > 6.00 | 5.00 to 6.00 | Cc1ncoc1COc1ccc2c(c1)CN[C@H]([C@H](O)CNC(=O)c1cc(NC3CCC3)ncn1)C2 [Compound 32, 6-(cyclobutylamino)-N—((R)-2-hydroxy-2-((S)-7-((4-methyloxazol-5-yl)methoxy)-1,2,3,4-tetrahydroisoquinolin-3-yl)ethyl)pyrimidine-4-carboxamide] | A (a Ki ratio greater than or equal to 10 fold between the Ki in the presence of SAM and the Ki in the presence of MTA) | B* (an IC50 ratio greater than or equal to 3 fold but lower than 10 fold between the IC50 in the HAP1 MTAP-intact cell line and the HAP1 MTAP-deleted cell line)
6.30 to 7.30 | 6.30 to 7.30 | > 7.30 | > 6.00 | 5.00 to 6.00 | COc1ccc(C(=O)N2CCc3cc(C(=O)NC[C@@H](O)[C@@H]4Cc5ccc(OCc6ocnc6C)cc5CN4)ccc3C2)cc1 [Compound 21, N—((R)-2-hydroxy-2-((S)-7-((4-methyloxazol-5-yl)methoxy)-1,2,3,4-tetrahydroisoquinolin-3-yl)ethyl)-2-(4-methoxybenzoyl)-1,2,3,4-tetrahydroisoquinoline-6-carboxamide] | A (a Ki ratio greater than or equal to 10 fold between the Ki in the presence of SAM and the Ki in the presence of MTA) | A* (an IC50 ratio greater than or equal to 10 fold between the IC50 in the HAP1 MTAP-intact cell line and the HAP1 MTAP-deleted cell line)
